Data: PMC4501687, “Design of a Selective Substrate and Activity Based Probe for Human Neutrophil Serine Protease 4” (PLoS ONE, 2015)
Values joined by “and” are separate entries in the source; they are usually repeats but may differ in a detail not shown here. Equal entries are not always repeated. Where two headings read alike, the source gives them in different places. Values belong to the substance of their own block, whether it stands above or below them. * marks the point of attachment. ACC = NC(=O)Cc1cc(=O)oc2cc(N*)ccc12; CH2Cl = ClC*

What was measured:
PR3 = target: T1, PR3 (Homo sapiens, UniProt P24158); test: Fluorogenic substrate hydrolysis kinetics with PR3; assay type: biochemical
T1 construct: purchased Athens Research Technology, Athens, Georgia, USA
T1 sequence (P24158 28-256): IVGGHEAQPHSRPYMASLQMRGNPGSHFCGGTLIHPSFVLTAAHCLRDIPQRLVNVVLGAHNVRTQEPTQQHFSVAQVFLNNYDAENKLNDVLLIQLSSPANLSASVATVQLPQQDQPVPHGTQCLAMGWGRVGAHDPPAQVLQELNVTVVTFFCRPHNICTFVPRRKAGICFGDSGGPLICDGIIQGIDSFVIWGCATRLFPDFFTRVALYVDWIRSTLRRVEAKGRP
Procedure: (§1) Kinetic parameters of selected substrates were determined in 50 mM Hepes, 0.1 M NaCl, 0.1%TRITON-X100, pH 7.45 assay buffer on 96 wells Corning plates. Measurements were performed for a minimum of 20 minutes. The excitation wavelength was 355 nm, and the emission wavelength was 460 nm, with a cutoff of 455 nm. Human NE and CatG were purchased from Biocentrum, Krakow, Poland and PR3 from Athens Research Technology, Athens, Georgia, USA. Recombinant human NSP4 was expressed and purified as previously described.
(§2) In addition to NSP4, neutrophils contain three other structurally-related serine proteases NE, PR3 and CatG [1] that are also stored in azurophilic granules. To estimate the degree of eventual cross reactivity of the optimal substrate with these three serine proteases, we measured kinetic parameters for each enzyme on PK421. […] In the case of CatG we were unable to saturate the enzyme and therefore could not calculate the individual values of kcat and Km.

NSP4 [1] = target: T2, NSP4 (Homo sapiens, UniProt Q6UWY2); test: SDS-PAGE / streptavidin blot labeling of purified NSP4 by probe; assay type: binding; conditions: 100 nM NSP4 preincubated with inhibitor 30 min 37°C, then PK401 up to 2000 nM for 20 min
T2 construct: made in house
T2 sequence (Q6UWY2 32-283): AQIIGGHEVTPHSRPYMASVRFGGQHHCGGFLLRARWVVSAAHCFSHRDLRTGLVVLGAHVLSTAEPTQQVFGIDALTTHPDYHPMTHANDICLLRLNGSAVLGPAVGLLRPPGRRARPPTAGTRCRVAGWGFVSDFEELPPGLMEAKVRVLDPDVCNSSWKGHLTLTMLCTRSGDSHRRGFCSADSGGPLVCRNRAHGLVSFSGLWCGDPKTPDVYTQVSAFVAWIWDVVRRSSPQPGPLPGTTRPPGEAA
Procedure: 100nM of NSP4 was incubated with competing inhibitor—Ac-IVPR-CMK for 30 minutes at 37°C and then treated with different concentrations of probe—PK401 (2000nM and 1000nM) for 20 minutes at 37°C. Separately, 100nM of NSP4 was incubated with five different concentrations of probe- 2000nM, 1000nM, 100nM, 10nM, and 1 nM for 20 minutes in 37°C. As a control 100nM PK401 was incubated with assay buffer.
Samples were denatured and run in 4–12% SDS PAGE following transfer to nitrocellulose membrane. The membrane was blocked with 1.5% BSA in TBST overnight at 4°C and treated with IRDye800CW Streptavidin (dilution 1:10000 with 1.5% BSA in TBST) for 45 minutes. Then enzyme was visualized using a Li-cor fluorescence imager and Odyssey Molecular Modeling Software.
SDS-page and Western Blot […]
A standard SDS broad spectrum marker (Biorad) was used (Fig. 4A, lane 1). […]
minutes in 37° C (Fig. 4, lanes 4, 5, 6, 7, 8). […] Then enzyme was visualized using a Li-cor fluorescence imager and Odyssey Molecular Modeling Software. […]
The membrane was blocked with 1.5% BSA in TBST overnight at 4° C and treated with IRDye800CW Streptavidin (dilution 1:10000 with 1,5% BSA in TBST) for 45 minutes. Then PK401 was visualized using a Li-cor fluorescence imager and Odyssey Molecular Modeling Software.

NSP4 [2] = target: T2, NSP4; test: Fluorogenic substrate hydrolysis kinetics with NSP4; assay type: biochemical
Procedure: as §1
To 20μl of substrates dissolved in assay buffer at known concentration ranges (PK421 and PK431–320–1μM, PK417 and PK418–460–27μM), 80μl of NSP4 (2.9nM), preincubated for 20 minutes at 37°C in buffer, was added. Km, kcat and kcat/Km parameters/constants were calculated using GraphPad Prism and Excel software. Each experiment was repeated three times, and the results are presented as an average +/- S.D.

NE = target: T3, NE (Homo sapiens, UniProt P08246); test: Fluorogenic substrate hydrolysis kinetics with NE; assay type: biochemical
T3 construct: purchased Biocentrum, Krakow, Poland
T3 sequence (P08246 30-267): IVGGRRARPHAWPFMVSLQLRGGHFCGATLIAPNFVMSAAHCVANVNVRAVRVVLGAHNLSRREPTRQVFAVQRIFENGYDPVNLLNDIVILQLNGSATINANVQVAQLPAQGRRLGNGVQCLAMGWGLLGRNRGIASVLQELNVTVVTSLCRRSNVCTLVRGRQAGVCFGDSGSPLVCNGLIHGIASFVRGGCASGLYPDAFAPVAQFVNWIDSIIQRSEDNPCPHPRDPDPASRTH
Procedure: as §1, §2

[3] = Table 1, NSP4 2.9 nM preincubated 20 min 37°C, 50 mM Hepes, 0.1 M NaCl, 0.1% TRITON-X100, pH 7.45, ACC fluorescence ex 355/em 460 nm, average ± S.D., minimum of 2 experiments, SD, read-out: Km
[4] = Table 1, NSP4 2.9 nM, Hepes buffer pH 7.45, 37°C, ACC fluorescence, average ± S.D., minimum of 2 experiments, SD
[5] = Table 1 and text, NSP4 2.9 nM, Hepes buffer pH 7.45, 37°C, ACC fluorescence, average ± S.D., minimum of 2 experiments
[6] = Table 2, hydrolysis by NSP4, Hepes buffer pH 7.45

- Km (PR3; Table 3, assay substrate for PR3, read-out: Km of the substrate used for analysis): 13.7 ± 0.67 µM
Substance: Ac-Glu(OBzl)-Lys(Ac)-hPro(OBzl)-Abu-ACC [assay substrate for PR3, reference compound]

Substance: Ac-IVPR-CH2Cl [reference compound]
- Effect of NSP4 active site blocking on PK401 binding (NSP4 [1]): prevented binding

Substance: Ac-IVPR-{ACC} (SMILES CC[C@H](C)[C@H](NC(C)=O)C(=O)N[C@H](C(=O)N1CCC[C@H]1C(=O)N[C@@H](CCCNC(=N)N)C(=O)Nc1ccc2c(CC(N)=O)cc(=O)oc2c1)C(C)C) [PK417, fluorogenic NSP4 substrate of natural amino acids]
- Km (NSP4 [2]; [3]): 96 ± 16 µM
- kcat (NSP4 [2]; [4]): 0.2 ± 0.02 s⁻¹
- kcat/Km (NSP4 [2]; [5]): 2100 M⁻¹ s⁻¹ and 2100 ± 300 M⁻¹ s⁻¹

- Km (NE; Table 3, assay substrate for NE, read-out: Km of the substrate used for analysis): 0.28 ± 0.08 µM
Substance: Ac-Nle(OBzl)-Met(O)2-Oic-Abu-ACC [assay substrate for NE, reference compound]

Substance: Ac-RVPR-{ACC} (SMILES CC(=O)N[C@@H](CCCNC(=N)N)C(=O)N[C@H](C(=O)N1CCC[C@H]1C(=O)N[C@@H](CCCNC(=N)N)C(=O)Nc1ccc2c(CC(N)=O)cc(=O)oc2c1)C(C)C) [PK418, fluorogenic NSP4 substrate of natural amino acids]
- Km (NSP4 [2]; [3]): 67 ± 10 µM
- kcat (NSP4 [2]; [4]): 0.06 ± 0.003 x 10^−3 s^-1
- kcat/Km (NSP4 [2]; [5]): 960 ± 190 M⁻¹ s⁻¹

Substance: Ac-hCha-Phe(guan)-Oic-Arg-ACC [PK421, optimal fluorogenic NSP4 substrate with unnatural amino acids]
- kcat/Km (NE; Table 2, hydrolysis by NE, NA = no activity detected): Lack of measurable activity
- kcat/Km (PR3; Table 2, hydrolysis by PR3, NA = no activity detected): Lack of measurable activity
- Increase of kcat/Km relative to PK431 (Pro to Oic at P2) (NSP4 [2]; NSP4, PK421 versus PK431): 39%
- Fold more efficiently cleaved by NSP4 than PK417 (kcat/Km ratio) (NSP4 [2]; NSP4, versus best substrate of only natural amino acids): around 15 times
- Km (NSP4 [2]; [3]): 61 ± 9.1 µM
- kcat (NSP4 [2]; [4]): 2.0 ± 0.54 s⁻¹
- kcat/Km (NSP4 [2]; [5]): 32000 M⁻¹ s⁻¹ and 32000.0 ± 4500 M⁻¹ s⁻¹
- kcat (NSP4 [2]; [6]): 2.0 ± 0.54 s⁻¹
- kcat/Km (NSP4 [2]; [6]): 32000 ± 4500 M⁻¹ s⁻¹
- Km (NSP4 [2]; Table 2, hydrolysis by NSP4, Hepes buffer pH 7.45, read-out: Km): 61 ± 9.1 µM

Substance: Ac-hCha-Phe(guan)-Pro-Arg-ACC [PK431, fluorogenic NSP4 substrate with unnatural amino acids]
- Km (NSP4 [2]; [3]): 53 ± 0.8 µM
- kcat (NSP4 [2]; [4]): 1.2 ± 0.017 s⁻¹
- kcat/Km (NSP4 [2]; [5]): 23000 ± 11 M⁻¹ s⁻¹
- Km (NSP4 [2]; Table 3, assay substrate for NSP4, read-out: Km of the substrate used for analysis): 53 ± 0.8 µM
